# Experiment: Stopped-flow kinetic analysis of catalytic dismutation of superoxide
# Assay type: biochemical
# Conditions: pH=8.1 and 21° C., 80 mM Hepes buffer, absorbance at 245 nm
# Description: Stopped-flow kinetic analysis is an accurate and direct method for quantitatively monitoring the decay rates of superoxide in water. The stopped-flow kinetic analysis is suitable for screening compounds for SOD activity and catalytic activity of the compounds or complexes of the present invention for dismutating superoxide, as shown by stopped-flow analysis, correlate to treating the above disease states and disorders. […]
# Water for buffer solutions was delivered from an in-house deionized water system to a Barnstead Nanopure Ultrapure Series 550 water system and then double distilled, first from alkaline potassium permanganate and then from a dilute EDTA solution. […] This system produces deoxygenated water that can be measured to have a conductivity of less than 2.0 nanomhos/cm^2.
# The stopped-flow spectrometer system was designed and manufactured by Kinetic Instruments Inc. (Ann Arbor, Mich.) and was interfaced to a MAC IICX personal computer. […] Since the published extinction coefficient of superoxide in H2O at 245 nm is ˜2250 M^−1 cm^−1 (1), an initial absorbance value of approximately 0.3-0.5 would be expected for a 2-cm path length cell, and this was observed experimentally. […]
smiles,measurement,value
"OCCCC1NCCNCCNCCNCCNC1CCCO.[Cl][Mn][Cl] (stereo not drawn) [Example 1, [Manqanese(II)dichloro (trans-2,3-bis(3-hydroxypropyl)-1,4,7,10,13-pentaazacyclopentadecane)]]",catalytic rate constant for dismutation of superoxide (kcal),1.8e+07 M⁻¹ s⁻¹
